These results are taken from patent publication US8093256B2, “Use of 8-substituted-6,7,8,9-tetrahydropyrimido[1,2-a] pyrimidin-4-one derivatives” (Sanofi-Aventis, priority 2003, dated 2012).

Structures are written as SMILES. pIC50: −log10 of the molar value. Where a name gives a salt, the structure may show the parent alone.

Chain of GSK3β (P49841 whole entry, species assumed): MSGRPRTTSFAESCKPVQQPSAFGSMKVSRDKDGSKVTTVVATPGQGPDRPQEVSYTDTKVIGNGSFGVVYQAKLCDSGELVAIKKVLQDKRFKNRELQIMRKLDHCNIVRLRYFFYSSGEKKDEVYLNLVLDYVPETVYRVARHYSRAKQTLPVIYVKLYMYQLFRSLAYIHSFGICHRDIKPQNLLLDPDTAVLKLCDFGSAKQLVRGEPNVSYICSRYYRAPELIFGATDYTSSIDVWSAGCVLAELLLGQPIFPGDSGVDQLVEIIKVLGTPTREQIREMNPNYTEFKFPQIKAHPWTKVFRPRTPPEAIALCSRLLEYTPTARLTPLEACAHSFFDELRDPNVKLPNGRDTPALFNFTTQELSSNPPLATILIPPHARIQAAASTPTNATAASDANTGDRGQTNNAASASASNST

The target of one series is GSK3β (Homo sapiens, UniProt P49841). Nature of the series: Inhibitory activity against GSK3β (33P-ATP phosphorylation of prephosphorylated GS1 peptide, two protocols). The format is biochemical. As for the experimental part:
Inhibitory Activity of the Medicament of the Present Invention Against GSK3β Two different protocols can be used. In a first protocol: 7.5 μM of prephosphorylated GS1 peptide and 10 μM ATP (containing 300,000 cpm of 33P-ATP) were incubated in 25 mM Tris-HCl, pH 7.5, 0.6 mM DTT, 6 mM MgCl2, 0.6 mM EGTA, 0.05 mg/ml BSA buffer for 1 hour at room temperature in the presence of GSK3beta (total reaction volume: 100 microliters). In a second protocol: 4.1 μM of prephosphorylated GS1 peptide and 42 μM ATP (containing 260,000 cpm 33P-ATP) were incubated in 80 mM Mes-NaOH, pH 6.5, 1 mM Mg acetate, 0.5 mM EGTA, 5 mM 2-mercaptoethanol, 0.02% Tween 20, 10% glycerol buffer for 2 hours at room temperature in the presence of GSK3beta. Inhibitors were solubilized in DMSO (final solvent concentration in the reaction medium, 1%). The reaction was stopped with 100 microliters of a solution made of 25 g polyphosphoric acid (85% P2O5), 126 ml 85% H3PO4, H2O to 500 ml and then diluted to 1:100 before use. An aliquot of the reaction mixture was then transferred to Whatman P81 cation exchange filters and rinsed with the solution described above. Incorporated 33P radioactivity was determined by liquid scintillation spectrometry. The phosphorylated GS-1 peptide had the following sequence: NH2-[…](P)EDEE-COOH.
As usually defined, the pIC50 is the negative decadic logarithm of the IC50, by convention in mol/L. A higher pIC50 goes with a small IC50. Molecule `O=C(CN1c2nc(-c3ccncc3)cc(=O)n2CCC1c1ccncc1)c1cccc(Br)c1` (stereo not shown) [Compound No. 15, 9-[2-(3-Bromo-phenyl)-2-oxo-ethyl]-2,8-dipyridin-4-yl-6,7,8,9-tetrahydro-pyrimido[1,2-a]pyrimidin-4-one hydrochloride (1:2)] had a negative-log IC50 (pIC50) of 8.15.

Tested on in the next series: not given
Assay: not given
For orientation: melting point means the temperature, or range, at which the solid turns liquid. On to `O=c1cc(-c2ccncc2)nc2n1CCC(c1ccccc1)N2CC(O)c1ccc(Cl)cc1` (stereo not shown) [compound 24, 9-[2-Hydroxy-2-(4-chloro-phenyl)-ethyl]-8-phenyl-2-pyridin-4-yl-6,7,8,9-tetrahydro-pyrimido[1,2-a]pyrimidin-4-one], for which the melting point was 220 to 222 °C.
`O=c1cc(-c2ccncc2)nc2n1CCC(c1ccccc1)N2CC(O)c1ccc2ccccc2c1` (stereo not shown) [compound 28, 9-[2-Hydroxy-2-naphthalen-2-yl-ethyl]-8-phenyl-2-pyridin-4-yl-6,7,8,9-tetrahydro-pyrimido[1,2-a]pyrimidin-4-one]: the melting point is 190 to 192 °C.
As for `O=c1cc(-c2ccncc2)nc2n1CCC(c1ccccc1)N2CC(O)c1cccc(Br)c1` (stereo not shown) [compound 23, 9-[2-Hydroxy-2-(3-bromo-phenyl)-ethyl]-8-phenyl-2-pyridin-4-yl-6,7,8,9-tetrahydro-pyrimido[1,2-a]pyrimidin-4-one], the melting point lay within 170 to 172 °C.
The same measure, in the same setting: the result for `O=c1cc(-c2ccncc2)nc2n1CCC(c1ccccc1)N2CC(O)c1ccc(F)cc1` (stereo not shown) [compound 26, 9-[2-Hydroxy-2-(4-fluoro-phenyl)-ethyl]-8-phenyl-2-pyridin-4-yl-6,7,8,9-tetrahydro-pyrimido[1,2-a]pyrimidin-4-one] reads 201 to 203 °C.
With `O=c1cc(-c2ccncc2)nc2n1CCC(c1ccccc1)N2CC(O)c1ccc(-c2ccccc2)cc1` (stereo not shown) [compound 27, 9-[2-Hydroxy-2-(4-phenyl-phenyl)-ethyl]-8-phenyl-2-pyridin-4-yl-6,7,8,9-tetrahydro-pyrimido[1,2-a]pyrimidin-4-one], the melting point was in the range of 145 to 147 °C.
Still for that read-out and setting: the same measure for `O=c1cc(-c2ccncc2)nc2n1CCC(c1ccncc1)N2CC(O)c1cccc(F)c1` (stereo not shown) [compound 25, 9-[2-(3-Fluoro-phenyl)-2-hydroxy-ethyl]-2,8-dipyridin-4-yl-6,7,8,9-tetrahydro-pyrimido[1,2-a]pyrimidin-4-one]: 218 to 220 °C.
